Test results taken from patent publication US20130101632A1, “NANOPARTICULATE FORMULATIONS OF MITHRAMYCIN OR MITHRAMYCIN ANALOGUES FOR TREATING CANCER” (UNIVERSITY OF KENTUCKY RESEARCH FOUNDATION, priority 2011, published 2013).

Key:
HT29 cells = experiment: Cell toxicity assay in HT29 cells (resazurin); format: cell-based; settings: 72 hrs exposure
Procedure: The in vitro cytotoxic effects of the MTM loaded CNAs (Crosslinked Nano Assemblies) were investigated in comparison to free drugs. HT29 cells were cultured as specified from ATCC at 37° C., 5% CO2. The cells were seeded on a 96 well plate (5,000 cells/well) and allowed to adhere for 24 hrs. After 24 hrs growth media were replaced with fresh media containing drug and CNA samples at differing concentrations. Free drug formulations for SK and SDK and CNA formulations were prepared in filtered DI water. The cells were exposed to samples for 72 hrs total (n=4). Cell viability was assessed using a resazurin assay that indicates mitochondrial metabolic activity in live cells. 10 μL of a 1 mM resazurin (7-Hydroxy-3H-phenoxazin-3-one 10-oxide) solution in PBS was added to the vehicle- and drug-treated cells at the end of the treatment period. Cell viability was determined three hours later by reading the fluorescence at 560 nm (Ex)/590 nm (Em). The fluorescence signals were quantified using a Spectramax® M5 plate reader (Molecular Devices) equipped with a SoftMaxPro® software. Cytotoxicity was determined by calculating the half maximal inhibitory concentration (IC50) of each sample.

A549 cells = experiment: Cell toxicity assay in A549 cells (resazurin); format: cell-based, human
Procedure: The cytotoxic effects of four MTM analogue nanoparticulate formulations were investigated in comparison to free drugs. A549 cells were cultured as specified from ATCC at 37° C., 5% CO2. The cells were seeded on a 96 well plate (5,000 cells/well) and allowed to adhere for 24 hrs. After 24 hrs growth media were replaced with fresh media containing samples at differing concentrations. 1% DMSO (biotechnological grade) was used as a control vehicle to prepare free drug formulations for SK and SDK. Self-assembled and cross-linked micelles were used as nanoparticulate formulations for SK and SDK. The cells were exposed to samples for 72 hrs total (n=8). Cell viability was assessed using a resazurin assay that indicates mitochondrial metabolic activity in live cells. 10 μL of a 1 mM resazurin solution in PBS was added to the vehicle- and drug-treated cells at the end of the treatment period. Cell viability was determined three hours later by reading the fluorescence at 560 nm (Ex)/590 nm (Em). The fluorescence signals were quantified using a Spectramax M5 plate reader (Molecular Devices) equipped with a SoftMaxPro software. Cytotoxicity was determined by calculating the half maximal inhibitory concentration (IC50) of each sample.

HT29 colon cancer cells = experiment: In vivo subcutaneous tumor model; settings: 2 mg/kg, 100 μL injection, after 18 days, HT29 subcutaneous tumors in nude mice
Procedure: Subcutaneous tumor models were established with HT29 colon cancer cells. Nude/nude mice at 8 weeks old were injected with 3×10^6 HT29 cells subcutaneously in the right flank. The tumors were then allowed to grow to a volume of ˜130 mm^3. Once the tumors reached a volume of 130 mm^3 the mice were injected with 100 μL of the desired treatment. For the control group the mice were injected with PBS. For the SK free drug and SK CNA groups the final treatment dose was 7 mg/kg and an injection volume of 100 μL. For SDK free drug and SDK CNA the final treatment dose was 2 mg/kg with an injection volume of 100 μL. Once the mice were treated the tumor volume and body mass were measured for 18 days. The groups were formed with an N=6 mice. The tumor volume was calculated by the formula 0.5(l)×w2.

SMILES: CO[C@H](C(=O)C(C)=O)[C@@H]1Cc2cc3cc(OC4C[C@@H](OC5C[C@@H](O)[C@H](O)C(C)O5)[C@H](O)C(C)O4)c(C)c(O)c3c(O)c2C(=O)[C@H]1OC1C[C@@H](OC2C[C@@H](OC3C[C@](C)(O)[C@H](O)C(C)O3)[C@@H](O)C(C)O2)[C@H](O)C(C)O1 (stereo partly shown) [SDK]
- IC50 (HT29 cells): 0.216 ± 0.004 µM
- IC50 (A549 cells; 72 hrs exposure, resazurin assay): 0.093 ± 0.035 µM
- Relative efficacy to free drug (A549 cells; relative to free drug = 1.00): 1.00
- relative tumor regression as compared to the control (HT29 colon cancer cells): 48%
